For 19 compounds, IC50 and GI50 results are on record in patent US20220220128A1, “HETEROCYCLIC COMPOUNDS AS KINASE INHIBITORS, COMPOSITIONS COMPRISING THE HETEROCYCLIC COMPOUND, AND METHODS OF USE THEREOF” (JS Innopharm (Shanghai) Ltd, priority 2019, published 2022).

For orientation: IC50 means the concentration that inhibits the measured activity by half. A higher IC50 goes with lower potency.

Each structure is given as a SMILES string.

For one assay, the target named is T1, human RET kinase (Homo sapiens, UniProt P07949).
T1 construct: purchased Carna 08-159
T1 sequence (P07949 29-1114): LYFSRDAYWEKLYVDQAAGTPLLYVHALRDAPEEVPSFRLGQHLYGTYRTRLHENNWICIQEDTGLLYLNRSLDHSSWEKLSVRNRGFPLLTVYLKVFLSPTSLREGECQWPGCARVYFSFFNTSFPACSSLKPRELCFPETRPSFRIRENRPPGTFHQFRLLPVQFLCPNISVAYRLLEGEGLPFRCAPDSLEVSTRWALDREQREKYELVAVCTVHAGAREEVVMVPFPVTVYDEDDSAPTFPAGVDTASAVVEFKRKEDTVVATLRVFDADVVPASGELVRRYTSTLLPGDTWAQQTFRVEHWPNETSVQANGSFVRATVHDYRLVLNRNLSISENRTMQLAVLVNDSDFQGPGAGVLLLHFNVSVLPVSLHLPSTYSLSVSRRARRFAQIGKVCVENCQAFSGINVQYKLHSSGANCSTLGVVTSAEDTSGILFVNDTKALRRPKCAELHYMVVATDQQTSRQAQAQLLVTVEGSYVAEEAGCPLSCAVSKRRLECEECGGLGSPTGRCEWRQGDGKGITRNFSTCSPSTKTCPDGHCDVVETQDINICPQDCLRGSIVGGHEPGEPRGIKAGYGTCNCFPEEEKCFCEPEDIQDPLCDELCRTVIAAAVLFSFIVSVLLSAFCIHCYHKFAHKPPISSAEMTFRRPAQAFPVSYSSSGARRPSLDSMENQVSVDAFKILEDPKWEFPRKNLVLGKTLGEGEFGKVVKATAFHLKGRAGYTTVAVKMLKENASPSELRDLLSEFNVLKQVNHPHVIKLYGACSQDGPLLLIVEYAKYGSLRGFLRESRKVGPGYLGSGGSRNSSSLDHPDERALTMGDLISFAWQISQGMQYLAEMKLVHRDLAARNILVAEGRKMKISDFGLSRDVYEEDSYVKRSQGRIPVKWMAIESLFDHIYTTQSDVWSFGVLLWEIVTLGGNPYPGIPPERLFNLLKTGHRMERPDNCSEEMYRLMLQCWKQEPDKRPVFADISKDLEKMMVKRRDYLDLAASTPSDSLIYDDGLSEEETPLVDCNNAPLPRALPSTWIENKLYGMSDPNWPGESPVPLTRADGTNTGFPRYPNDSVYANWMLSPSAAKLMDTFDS
Put plainly: RET Kinase Assay (LanthaScreen TR-FRET enzymatic assay). The assay is classed as biochemical. The conditions noted are these: 7 nM RET, 23 μM ATP. Summed up:
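TR-FRET enzymatic read-out using 23 μM ATP, 3 μM FAM-P2 substrate and 7 nM human RET, after 15-min compound pretreatment at room temperature and a 1 h reaction at 28° C in HEPES pH 7.5 buffer. Percent of DMSO control fitted to nonlinear sigmoid curves for IC50.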
A general note: Time-resolved FRET reads energy transfer from a long-lived donor to a nearby acceptor.

In a further assay the target is T2, BAF3-KIF5B-RET cells (Homo sapiens, UniProt P07949).
T2 construct: fused on or other part: P33176 (Kinesin-1 heavy chain)
T2 sequence (P07949 whole entry, change not shown, the tested form may be a part): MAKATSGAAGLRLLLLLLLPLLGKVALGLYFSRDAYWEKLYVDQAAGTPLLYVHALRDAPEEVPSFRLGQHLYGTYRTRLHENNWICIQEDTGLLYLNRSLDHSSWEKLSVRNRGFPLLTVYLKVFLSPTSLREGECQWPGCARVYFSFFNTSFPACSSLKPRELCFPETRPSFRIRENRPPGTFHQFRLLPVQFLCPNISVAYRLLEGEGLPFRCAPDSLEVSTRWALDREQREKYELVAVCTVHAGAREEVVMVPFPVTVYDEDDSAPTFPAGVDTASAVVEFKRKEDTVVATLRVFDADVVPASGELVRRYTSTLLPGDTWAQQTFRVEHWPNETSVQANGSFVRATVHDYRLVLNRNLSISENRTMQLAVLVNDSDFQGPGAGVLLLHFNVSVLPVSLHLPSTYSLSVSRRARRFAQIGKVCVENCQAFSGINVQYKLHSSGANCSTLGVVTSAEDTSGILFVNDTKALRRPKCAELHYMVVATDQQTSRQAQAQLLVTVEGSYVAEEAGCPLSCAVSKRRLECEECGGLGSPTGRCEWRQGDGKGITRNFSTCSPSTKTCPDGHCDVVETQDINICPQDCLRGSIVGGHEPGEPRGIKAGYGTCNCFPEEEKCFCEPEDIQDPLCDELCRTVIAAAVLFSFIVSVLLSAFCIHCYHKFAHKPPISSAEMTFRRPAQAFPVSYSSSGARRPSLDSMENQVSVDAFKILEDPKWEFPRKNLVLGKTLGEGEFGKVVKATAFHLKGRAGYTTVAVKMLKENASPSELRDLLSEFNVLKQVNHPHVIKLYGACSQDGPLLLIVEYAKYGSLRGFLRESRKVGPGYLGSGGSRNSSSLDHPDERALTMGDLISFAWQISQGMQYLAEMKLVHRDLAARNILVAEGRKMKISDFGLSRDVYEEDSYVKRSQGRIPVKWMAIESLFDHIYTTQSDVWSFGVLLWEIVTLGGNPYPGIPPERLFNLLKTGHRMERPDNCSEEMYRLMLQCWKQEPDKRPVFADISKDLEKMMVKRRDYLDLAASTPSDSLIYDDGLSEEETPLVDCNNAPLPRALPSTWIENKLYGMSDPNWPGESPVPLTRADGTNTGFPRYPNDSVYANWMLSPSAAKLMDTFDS
Description: BAF3-KIF5B-RET Cell proliferation assay (CellTiter-Glo, 72 hours). The assay is classed as cell-based. The conditions noted are these: growth inhibition, read-out: BA/F3-KIF5B-RET Cellular activity. The method, then: Compounds disclosed herein were tested for the inhibition of RET by a cancer cell proliferation assay commonly known as CellTiter-Glo assay. In this assay, a complete media was prepared by adding 10% fetal bovine serum to RPMI-1640 medium (Life technology) for BAF3-FIF5B-RET cells. BAF3-KIF5B-RET cells were added to each of 88 wells of a 96 well plate at a seeding density of 2,000 cells/well/95 μL. The cells were allowed to attach to the plate by incubating at 37° C. for 24 hours. The compound was dissolved in DMSO (SIGMA). A solution of test compound was prepared in complete media by serial dilution to obtain the following concentrations: 20 μM, 6.67 μM, 2.22 μM, 0.74 μM, 0.25 μM, 0.082 μM, 0.027 μM, 0.0091 μM and 0.0030 μM. The test compound solution (5 μL) was added to each of 80 cell-containing wells. The final concentrations of the compound were following: 1 μM, 0.33 μM, 0.11 μM, 0.037 μM, 0.012 μM, 0.0041 μM, 0.0014 μM, 0.00046 μM and 0.00015 μM. The final concentration of DMSO is 0.1%. To the 8 remaining cell-containing wells, only complete media (containing 0.1% DMSO) was added to form a control group in order to measure maximal proliferation. To the remaining 8 empty wells, complete media was added to for a vehicle control group in order to measure background. The plates were incubated at 37° C. for 72 hours. 50 μl of CellTiter-Glo® Reagent was added to each well. Mix contents for 2 minutes on an orbital shaker to induce cell lysis. Incubate at room temperature for 10 minutes to stabilize luminescent signal. Record luminescence on Paradigm. Cell viability (CV %) was calculated relative to vehicle (DMSO) treated control wells. The IC50 was calculated using GraphPad Prism.

The compound `COc1ccc(C(=O)NC23CC4CC(C2)N(c2ccc(-c5cc(-c6cnn(C)c6)cn6ncc(C#N)c56)cn2)C(C4)C3)cn1` [Example 188, N-((1R,3S,5s,7s)-2-(5-(3-cyano-6-(1-methyl-1H-pyrazol-4-yl)pyrazolo[1,5-a]pyridin-4-yl)pyridin-2-yl)-2-azaadainantan-5-yl)-6-methoxynicotinamide] returned an IC50 against human RET kinase of at most 0.01 µM. In addition, the GI50 at BAF3-KIF5B-RET cells is at most 0.01 µM.
In turn, `CC(C)(O)COc1cc(-c2cnc(N3C4CC5CC3CC(NC(=O)c3ncccc3Cl)(C5)C4)cn2)c2c(C#N)cnn2c1` [Example 164, 3-chloro-N-((1R,3S,5s,7s)-2-(5-(3-cyano-6-(2-hydroxy-2-methylpropoxy)pyrazolo[1,5-a]pyridin-4-yl)pyrazin-2-yl)-2-azaadamantan-5-yl)picolinamide] came in with an IC50 on human RET kinase of at most 0.01 µM. Besides, the GI50 on BAF3-KIF5B-RET cells is at most 0.01 µM.
At human RET kinase, `COc1cc(C(=O)N[C@]2(C)C[C@H]3CN(c4cnc(-c5cc(-c6cnn(C)c6)cn6ncc(C#N)c56)cn4)C[C@H]3C2)ccn1` [Example 150, N-((3aR,5s,6aS)-2-(5-(3-cyano-6-(1-methyl-1H-pyrazol-4-yl)pyrazolo[1,5-a]pyridin-4-yl)pyrazin-2-yl)-5-methyloctahydrocyclopenta[c]pyrrol-5-yl)-2-methoxyisonicotinamide] came in with an IC50 of at most 0.01 µM. Further, the GI50 on BAF3-KIF5B-RET cells is at most 0.01 µM.
The compound `COc1ccc(CN2C[C@@H]3CN(c4cnc(-c5cc(OCC(C)(C)O)cn6ncc(C#N)c56)cn4)C[C@@H]3C2)cn1` [Example 120, 6-(2-hydroxy-2-methylpropoxy)-4-(5-((3aR,6aS)-5-((6-methoxypyridin-3-yl)methyl)hexahydropyrrolo[3,4-c]pyrrol-2(1H)-yl)pyrazin-2-yl)pyrazolo[1,5-a]pyridine-3-carbonitrile] yielded an IC50 against human RET kinase of at most 0.01 µM. On BAF3-KIF5B-RET cells, the GI50 lay within 0.01 to 0.05 µM.
For `CCOc1cc(-c2cnc(N3C4CC5CC3CC(N)(C5)C4)cn2)c2c(C#N)cnn2c1` [Example 163, 4-(5-((1R,3S,5s,7s)-5-amino-2-azaadamantan-2-yl)pyrazin-2-yl)-6-ethoxypyrazolo[1,5-a]pyridine-3-carbonitrile] the same measures were 0.01 to 0.05 µM and over 0.1 µM.
The compound `CCOc1cc(-c2cnc(N3C4CC5CC3CC(NC(=O)c3ncccc3Cl)(C5)C4)cn2)c2c(C#N)cnn2c1` [Example 169, 3-chloro-N-((1R,3S,5s,7s)-2-(5-(3-cyano-6-ethoxypyrazolo[1,5-a]pyridin-4-yl)pyrazin-2-yl)-2-azaadamantan-5-yl)picolinamide] gave an IC50 against human RET kinase of at most 0.01 µM. In addition, on BAF3-KIF5B-RET cells, the GI50 is at most 0.01 µM.
Compound `COc1cncc(C(=O)NC[C@@H]2[C@H]3CN(c4ccc(-c5cc(-c6cnn(C)c6)cn6ncc(C#N)c56)cn4)C[C@@H]23)c1` [Example 192, N-(((1R,5S,6s)-3-(5-(3-cyano-6-(1-methyl-1H-pyrazol-4-yl)pyrazolo[1,5-a]pyridin-4-yl)pyridin-2-yl)-3-azabicyclo[3.1.0]hexan-6-yl)methyl)-5-methoxynicotinainide] had an IC50 against human RET kinase of at most 0.01 µM. In addition, at BAF3-KIF5B-RET cells, the GI50 is 0.01 to 0.05 µM.
For `CCOc1cc(-c2cnc(N3C4CC5CC3CC(NC(=O)c3ccc(OC)nc3)(C5)C4)cn2)c2c(C#N)cnn2c1` [Example 167, N-((1R,3S,5s,7s)-2-(5-(3-cyano-6-cthoxypyrazolo[1,5-a]pyridin-4-yl)pyrazin-2-yl)-2-azaadamantan-5-yl)-6-methoxynicotinamide] the same measures were at most 0.01 µM and 0.05 to 0.1 µM.
For `COc1ccc(C(=O)NC[C@@H]2[C@H]3CN(c4cnc(-c5cc(OCC(C)(C)O)cn6ncc(C#N)c56)cn4)C[C@@H]23)cn1` [Example 155, N-(((1R,5S,6s)-3-(5-(3-cyano-6-(2-hydroxy-2-methylpropoxy)pyrazolo[1,5-a]pyridin-4-yl)pyrazin-2-yl)-3-azabicyclo[3.1.0]hexan-6-yl)methyl)-6-methoxynicotinamide] the same measures were 0.05 to 0.1 µM and over 0.1 µM.
With `COc1ccc(NC(=O)C23CC4CC(C2)N(c2cnc(-c5cc(OCC(C)(C)O)cn6ncc(C#N)c56)cn2)C(C4)C3)cn1` [Example 171, (1R,3S,5s,7s)-2-(5-(3-cyano-6-(2-hydroxy-2-methylpropoxy)pyrazolo[1,5-a]pyridin-4-yl)pyrazin-2-yl)-N-(6-methoxypyridin-3-yl)-2-azaadamantane-5-carboxamide], the IC50 at human RET kinase is at most 0.01 µM. The GI50 on BAF3-KIF5B-RET cells is 0.01 to 0.05 µM.
The matching figures for `COc1ccc(C(=O)NC[C@@H]2[C@H]3CN(c4cnc(-c5cc(-c6cnn(C)c6)cn6ncc(C#N)c56)cn4)C[C@@H]23)cn1` [Example 156, N-(((1R,5S,6s)-3-(5-(3-cyano-6-(1-methyl-1H-pyrazol-4-yl)pyrazolo[1,5-a]pyridin-4-yl)pyrazin-2-yl)-3-azabicyclo[3.1.0]hexan-6-yl)methyl)-6-methoxynicotinamide]: at most 0.01 µM and 0.01 to 0.05 µM.
For `Cn1cc(-c2cc(-c3cnc(N4C[C@@H]5C[C@](C)(NC(=O)c6ncccc6Cl)C[C@@H]5C4)cn3)c3c(C#N)cnn3c2)cn1` [Example 199, 3-chloro-N-((3aR,5r,6aS)-2-(5-(3-cyano-6-(1-methyl-1H-pyrazol-4-yl)pyrazolo[1,5-a]pyridin-4-yl)pyrazin-2-yl)-5-methyloctahydrocyclopenta[c]pyrrol-5-yl)picolinamide] the same measures were at most 0.01 µM and 0.01 to 0.05 µM.
Take `COc1ccc(C(=O)N[C@@]2(C)C[C@H]3CN(c4ccc(-c5cc(OCC(C)(C)O)cn6ncc(C#N)c56)cn4)C[C@H]3C2)cn1` [Example 172, N-((3aR,5r,6aS)-2-(5-(3-cyano-6-(2-hydroxy-2-methylpropoxy)pyrazolo[1,5-a]pyridin-4-yl)pyridin-2-yl)-5-methyloctahydrocyclopenta[c]pyrrol-5-yl)-6-methoxynicotinamide]: the IC50 against human RET kinase lay within 0.01 to 0.05 µM. For the same compound, on BAF3-KIF5B-RET cells, the GI50 is over 0.1 µM.
Compound `CC(C)(O)COc1cc(-c2ccc(N3C[C@H]4C[C@@H](NC(=O)c5ncccc5Cl)C[C@H]4C3)nc2)c2c(C#N)cnn2c1` [Example 106, 3-chloro-N-((3aR,5r,6aS)-2-(5-(3-cyano-6-(2-hydroxy-2-methylpropoxy)pyrazolo[1,5-a]pyridin-4-yl)pyridin-2-yl)octahydrocyclopenta[c]pyrrol-5-yl)picolinamide] had an IC50 on human RET kinase of at most 0.01 µM. On BAF3-KIF5B-RET cells, the GI50 was at most 0.01 µM.
Turning to `CC(C)(O)COc1cc(-c2ccc(N3C[C@@H]4[C@H](C3)[C@H]4C(C)(C)NC(=O)c3ncccc3Cl)nc2)c2c(C#N)cnn2c1` [Example 129, 3-chloro-N-(2-((1R,5S,6r)-3-(5-(3-cyano-6-(2-hydroxy-2-methylpropoxy)pyrazolo[1,5-a]pyridin-4-yl)pyridin-2-yl)-3-azabicyclo[3.1.0]hexan-6-yl)propan-2-yl)picolinamide], the IC50 against human RET kinase was in the range of 0.01 to 0.05 µM. Also, the GI50 on BAF3-KIF5B-RET cells lay in the range of 0.05 to 0.1 µM.
For the compound `COc1ccc(NC(=O)C23CC4CC(C2)N(c2ccc(-c5cc(-c6cnn(C)c6)cn6ncc(C#N)c56)cn2)C(C4)C3)cn1` [Example 189, (1R,3S,5s,7s)-2-(5-(3-cyano-6-(1-methyl-1H-pyrazol-4-yl)pyrazolo[1,5-a]pyridin-4-yl)pyridin-2-yl)-N-(6-methoxypyridin-3-yl)-2-azaadamantane-5-carboxamide], on human RET kinase, the IC50 was at most 0.01 µM. Further, on BAF3-KIF5B-RET cells, the GI50 is at most 0.01 µM.
At human RET kinase, `Cn1cc(-c2cc(-c3cnc(N4C5CC6CC4CC(NC=O)(C6)C5)cn3)c3c(C#N)cnn3c2)cn1` [Example 107, N-((1R,3S,5s,7s)-2-(5-(3-cyano-6-(1-methyl-1H-pyrazol-4-yl)pyrazolo[1,5-a]pyridin-4-yl)pyrazin-2-yl)-2-azaadamantan-5-yl)formamide] came in with an IC50 of at most 0.01 µM. Moreover, the GI50 on BAF3-KIF5B-RET cells lay within 0.01 to 0.05 µM.
For `Cn1cc(-c2cc(-c3cnc(N4C5CC6CC4CC(NC(=O)OC(C)(C)C)(C6)C5)cn3)c3c(C#N)cnn3c2)cn1` [Example 109, tert-butyl ((1R,3S,5s,7s)-2-(5-(3-cyano-6-(1-methyl-1H-pyrazol-4-yl)pyrazolo[1,5-a]pyridin-4-yl)pyrazin-2-yl)-2-azaadamantan-5-yl)carbamate] the same measures were at most 0.01 µM and at most 0.01 µM.
For `CC(C)(O)COc1cc(-c2ccc(N3C[C@@H]4C[C@](C)(NC(=O)c5ncccc5Cl)C[C@@H]4C3)nc2)c2c(C#N)cnn2c1` [Example 115, 3-chloro-N-((3aR,5r,6aS)-2-(5-(3-cyano-6-(2-hydroxy-2-methylpropoxy)pyrazolo[1,5-a]pyridin-4-yl)pyridin-2-yl)-5-methyloctahydrocyclopenta[c]pyrrol-5-yl)picolinamide] the same measures were at most 0.01 µM and 0.01 to 0.05 µM.
